The term IC50 denotes the concentration that gives 50% inhibition. A higher IC50 goes with a need for much substance. As usually defined, the AUC is the area under the concentration-time curve, a measure of exposure. Read a low AUC as less exposure. What is called Cmax is the maximum level reached in the sampled fluid or tissue. The Tmax is the time from dosing to the highest level.

One series deals with T1, CD73 (Calu-6 cells) (Homo sapiens, UniProt P21589).
T1 construct: endogenous in cells; host or cells: Calu-6 cells
T1 sequence (P21589 27-549): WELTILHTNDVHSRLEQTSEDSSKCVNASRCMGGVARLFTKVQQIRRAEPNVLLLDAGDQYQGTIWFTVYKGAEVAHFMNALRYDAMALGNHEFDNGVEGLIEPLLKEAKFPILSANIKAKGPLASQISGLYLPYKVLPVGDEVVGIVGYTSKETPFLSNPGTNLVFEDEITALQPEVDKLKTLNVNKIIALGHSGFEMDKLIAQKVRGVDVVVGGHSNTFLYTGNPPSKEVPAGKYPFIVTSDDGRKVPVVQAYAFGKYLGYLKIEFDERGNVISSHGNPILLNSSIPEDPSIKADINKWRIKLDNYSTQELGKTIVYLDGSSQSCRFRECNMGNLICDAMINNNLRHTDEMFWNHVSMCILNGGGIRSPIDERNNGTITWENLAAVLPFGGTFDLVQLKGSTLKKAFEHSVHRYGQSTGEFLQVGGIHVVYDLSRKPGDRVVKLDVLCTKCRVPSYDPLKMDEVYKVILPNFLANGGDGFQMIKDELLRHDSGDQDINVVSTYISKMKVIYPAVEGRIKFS
Briefly: Enzymatic activity detection at the cellular level (Calu-6 cells, AMP substrate, Cell-titer Glo luminescence). The format is cell-based. The conditions noted are these: enzymatic IC50 at the Calu-6 cell level, 30 min pre-incubation, 120 min at 37° C. How it is done:
The Calu-6 cells were digested and re-suspended using TM buffer (25 mM Tris, 5 mM MgCl2, pH 7.5). Calu-6 cell suspension was seeded into 96 well cell culture plate, and the number of cells per well was 2.5×10^4, adding volume of 100 μL/well. Compound solution with gradient concentration was prepared by TM buffer, and 50 μL DMSO solution with different concentration was added into each pore cell. […] Pre-incubated in a shaker at 37° C. for 30 min. Each well was added with 50 μL 800 μM AMP solution. The shaker at 37° C. for 120 min was continued to incubate, then the 96-well plates were centrifuged and 50 μL supernatant was transferred to the new 96-well plates. […] The luminescence value was read by the multi-function enzymatic reader and converted into the inhibition percentage: Inhibition percentage=(1−reading/Max)*100. The “maximum value” was DMSO control. IC50 values were obtained by curve fitting with GraphPad Prism software.
`C=C[C@H]1C[C@@H]1c1cc(-c2c[nH]c(=O)[nH]c2=O)nnc1Cl` [Compound 13, 5-(6-chloro-5-((1S,2R)-2-vinylcyclopropyl)pyridazin-3-yl)pyrimidine-2,4(1H,3H)-dione] returned a half-inhibitory concentration (IC50) of 8.5 nM.

`O=c1[nH]cc(-c2cc([C@H]3C[C@@H]3c3ccccc3)c(Cl)nn2)c(=O)[nH]1` [Compound 57, 5-(6-chloro-5-((S,2S)-2-phenylcyclopropyl)pyridazin-3-yl)pyrimidine-2,4(1H,3H)-dione] returned a 50% inhibitory concentration (IC50) of 1.3 nM.

`Cc1ccc(C2CC2c2cc(-c3c[nH]c(=O)[nH]c3=O)nnc2Cl)cc1C` (stereo not drawn) [Compound 62] had a concentration for half-maximal inhibition (IC50) of 5.6 nM.

`Cc1cc(C)cc(C2CC2c2cc(-c3c[nH]c(=O)[nH]c3=O)nnc2Cl)c1` (stereo not drawn) [Compound 63] returned an IC50 of 19 nM.

In turn, `CC(C)c1ccc(C2CC2c2cc(-c3c[nH]c(=O)[nH]c3=O)nnc2Cl)cc1` (stereo not drawn) [Compound 64] gave a half-maximal inhibitory concentration (IC50) of 22.3 nM.

For the molecule `Cc1ccc(C2CC2c2cc(-c3c[nH]c(=O)[nH]c3=O)nnc2Cl)cc1F` (stereo not drawn) [Compound 65], the IC50 worked out at 4.7 nM.

Consider `O=c1[nH]cc(-c2cc(C3CC3c3ccc(C(F)(F)F)cc3)c(Cl)nn2)c(=O)[nH]1` (stereo not drawn) [Compound 66], for which half-maximal inhibition (IC50) was put at 3.9 nM.

In turn, `O=c1[nH]cc(-c2cc(C3CC3c3cccc(C(F)(F)F)c3)c(Cl)nn2)c(=O)[nH]1` (stereo not drawn) [Compound 67] displayed a 50% inhibitory concentration (IC50) of 7.3 nM.

As to `O=c1[nH]cc(-c2cc(C3CC3c3ccc(C(F)(F)F)c(F)c3)c(Cl)nn2)c(=O)[nH]1` (stereo not drawn) [Compound 68], the IC50 stood at 15 nM.

`O=c1[nH]cc(-c2cc(C3CC3c3ccc(F)c(C(F)(F)F)c3)c(Cl)nn2)c(=O)[nH]1` (stereo not drawn) [Compound 69] registered an IC50 of 13.4 nM.

For the molecule `O=c1[nH]cc(-c2cc(C3CC3c3cccc(F)c3F)c(Cl)nn2)c(=O)[nH]1` (stereo not drawn) [Compound 70], the IC50 stood at 7 nM.

In turn, `O=c1[nH]cc(-c2cc(C3CC3c3ccc(F)cc3F)c(Cl)nn2)c(=O)[nH]1` (stereo not drawn) [Compound 71] returned an IC50 of 4.6 nM.

Take `O=c1[nH]cc(-c2cc(C3CC3c3c(F)cc(F)cc3F)c(Cl)nn2)c(=O)[nH]1` (stereo not drawn) [Compound 72]: the 50% inhibitory concentration (IC50) is 4.9 nM.

With `O=c1[nH]cc(-c2cc(C3CC3c3cc(F)c(F)cc3F)c(Cl)nn2)c(=O)[nH]1` (stereo not drawn) [Compound 73], the midpoint of inhibition, the IC50, lay at 5.9 nM.

The molecule `O=Cc1ccc(C2CC2c2cc(-c3c[nH]c(=O)[nH]c3=O)nnc2Cl)cc1` (stereo not drawn) [Compound 74] returned a half-inhibitory concentration (IC50) of 2.7 nM.

For the molecule `O=C(O)c1cccc(C2CC2c2cc(-c3c[nH]c(=O)[nH]c3=O)nnc2Cl)c1` (stereo not drawn) [Compound 75], 32 nM corresponded to half-maximal inhibition (IC50).

Molecule `O=c1[nH]cc(-c2cc(C3CC3c3ccc(-c4ccccc4)cc3)c(Cl)nn2)c(=O)[nH]1` (stereo not drawn) [Compound 76] showed a half-inhibitory concentration (IC50) of 51.9 nM.

`COc1nnc(-c2c[nH]c(=O)[nH]c2=O)cc1C1CC1c1ccc(C#N)cc1` (stereo not drawn) [Compound 77, 4-(2-(6-(2,4-dioxo-1,2,3,4-tetrahydropyrimidin-5-yl)-3-methoxypyridazin-4-yl)cyclopropyl)benzonitrile] returned a 50% inhibitory concentration (IC50) of 7.2 nM.

The molecule `N#Cc1ccc(C2CC2c2cc(-c3c[nH]c(=O)[nH]c3=O)nnc2C#N)cc1` (stereo not drawn) [Compound 78, 4-(2-(4-cyanophenyl)cyclopropyl)-6-(2,4-dioxo-1,2,3,4-tetrahydropyrimidin-5-yl)pyridazine-3-carbonitrile] displayed an IC50 of 8.5 nM.

In the case of `Cc1nnc(-c2c[nH]c(=O)[nH]c2=O)cc1C1CC1Cc1ccccc1` (stereo not drawn) [Compound D2, reference compound], the midpoint of inhibition, the IC50, lay at 114 nM.

`O=c1[nH]cc(-c2cc([C@@H]3C[C@H]3c3ccccc3)c(Cl)nn2)c(=O)[nH]1` [Compound D3, reference compound] returned an IC50 of 1430 nM.

Tested on in a further series: not listed separately
Briefly: Pharmacokinetic evaluation in mice after intragastric administration (plasma concentration by LC/MS/MS). The format is in vivo. The conditions noted are these: mouse, Balb/C female mice, single PO 10 mg/kg. How it is done:
LC/MS/MS method was used to determine the plasma concentration of the embodiment compound at different time after intragastric administration in mice. Study the pharmacokinetic behavior of the compound in mice and evaluate its pharmacokinetic characteristics.
Methods: A single PK study (PO, 10 mg/kg) was performed on healthy Balb/C female mice (about 20 g) purchased from Beijing Vital River Laboratory Animal Technology Co., Ltd. About 1 hour before administration, a certain amount of drug was weighed and added with 5% DMSO and 95% hydroxypropyl betascyclodextrin (HP-β-CD) solution to form a colorless and clear solution. HP-β-CD solution is a 20% HP-β-CD solution prepared by adding HP-p-CD powder into 0.9% normal saline. Intragastric administration was performed at the dosage volume of 10 mL/kg, and blood was collected through the orbital venous plexus of mice. The blood collection time points were as follows: At 0.25, 0.5, 1.0, 2.0, 4.0, 7.0 and 24.0 hours before and after drug administration, 100 uL whole blood to K2EDTA anticoagulant tubes were taken at each time point, and the collected whole blood samples were centrifuged at 4000 rpm for 10 min. The plasma was separated and stored in the refrigerator at −80° C.
The above plasma samples were added to the pure acetonitrile solution containing the inner target for protein precipitation pre-treatment, centrifugation was performed at 10000 rpm for 10 min, and the supernatant was taken, mixed with water 1:1, and 10 μL to LC-MS/MS was used for detection. The linear range of compounds detected in plasma samples was 1-1000 ng/mL, and the data results were as follows:
The compound of the invention has good pharmacokinetic absorption and obvious pharmacokinetic advantages.
On to `C=C[C@H]1C[C@@H]1c1cc(-c2c[nH]c(=O)[nH]c2=O)nnc1Cl` [Compound 13, 5-(6-chloro-5-((1S,2R)-2-vinylcyclopropyl)pyridazin-3-yl)pyrimidine-2,4(1H,3H)-dione], for which the area under the curve (AUC) was 16900 ng·h/mL, the peak level (Cmax) was 10400 ng/mL and the time to peak (Tmax) was found to be 30 min.

Take `O=c1[nH]cc(-c2cc([C@H]3C[C@@H]3c3ccccc3)c(Cl)nn2)c(=O)[nH]1` [Compound 57, 5-(6-chloro-5-((S,2S)-2-phenylcyclopropyl)pyridazin-3-yl)pyrimidine-2,4(1H,3H)-dione]: the AUC turned out to be 10700 ng·h/mL, the concentration peaked (Cmax) at 5410 ng/mL and the time of peak concentration (Tmax) came to 30 min.

On to `Cc1nnc(-c2c[nH]c(=O)[nH]c2=O)cc1[C@H]1C[C@@H]1C(C)C` [Compound D1, reference compound], for which the area under the curve (AUC) is 677 ng·h/mL, the Cmax was 547 ng/mL and the Tmax is 30 min.

For the origin of these results see patent publication US20230321100A1, “CD73 INHIBITOR AND APPLICATION THEREOF IN MEDICINE” (BETTA PHARMACEUTICALS CO., LTD, priority 2020, published 2023).
